In patent US8445684B2, “Nicotinic acetylcholine receptor ligands and the uses thereof” (PsycoGenics Inc., priority 2008, dated 2013):
Values joined by “and” are separate entries in the source; they are usually repeats but may differ in a detail not shown here. Equal values may be shown once. Marks after values point to notes of the source that are not given here.

What was measured:
α2β2 nicotinic receptor = biological target: T1, α2β2 nicotinic receptor (Rattus norvegicus, UniProt P12389+P12390); assay: biochemical; type: binding
T1 construct: expressed in transfected cells; host or cells: stably transfected cell lines (e.g., HEK293, COS, CHO, NIH3T3)
Procedure: (§1) All binding assays were performed according to procedures set forth in the University of North Carolina at Chapel Hill National Institute of Mental Health Psychoactive Drug Screening Program Assay Protocol Book (pp. 50-54; PI: Bryan L. Roth MD, PhD).
(§2) Nicotinic receptors: α2β2, α2β4, α3β2, α3β4, α4β2, α4β4, endogenous α4β2. Assay buffer: 50 mM Tris-HCl, pH 7.4. Membrane fraction source: Stably transfected cell lines (e.g., HEK293, COS, CHO, NIH3T3) (α2β2, α2β4, α3β2, α3β4, α4β2, α4β4) or rat forebrain (α4β2).
(§3) Aliquots (50 μl) of radioligand were dispensed into the wells of a 96-well plate containing 100 μl of assay buffer. Then, duplicate 50-μl aliquots of the test and reference compound dilutions were added.
(§4) Finally, crude membrane fractions of cells expressing recombinant target (prepared from 10-cm plates by harvesting PBS-rinsed monolayers, resuspending and lysing in chilled, hypotonic 50 mM Tris-HCl, pH 7.4, centrifuging at 20,000×g, decanting the supernatant and storing at −80° C.; typically, one 10-cm plate provides sufficient material for 24 wells) were resuspended in 3 ml of chilled assay buffer and homogenized by several passages through a 26 gauge needle, then 50 μl were dispensed into each well.
(§5) The 250-μl reactions were incubated at room temperature and shielded from light (to prevent photolysis of light-sensitive ligands) for 4 hours, then harvested by rapid filtration onto Whatman GF/B glass fiber filters pre-soaked with 0.5% polyethyleneimine using a 96-well Brandel harvester. Four rapid 500-μl washes were performed with chilled Standard Binding Buffer to reduce non-specific binding. Filters were placed in 6-ml scintillation tubes and allowed to dry overnight. The next day, 4 ml of EcoScint scintillation cocktail (National Diagnostics) were added to each tube. The tubes were capped, labeled, and counted by liquid scintillation counting.
(§6) Raw data (dpm) representing total radioligand binding (i.e., specific+non-specific binding) were plotted as a function of the logarithm of the molar concentration of the competitor (i.e., test or reference compound).

α2β4 nicotinic receptor = biological target: T2, α2β4 nicotinic receptor (Rattus norvegicus, UniProt P12389+P12392); assay: biochemical; type: binding
T2 construct: expressed in transfected cells; host or cells: stably transfected cell lines (e.g., HEK293, COS, CHO, NIH3T3)
Procedure: as §1, §2, §3, §4, §5, §6

α3β4 nicotinic receptor = biological target: T3, α3β4 nicotinic receptor (Rattus norvegicus, UniProt P04757+P12392); assay: biochemical; type: binding
T3 construct: expressed in transfected cells; host or cells: stably transfected cell lines (e.g., HEK293, COS, CHO, NIH3T3)
Procedure: as §1, §2, §3, §4, §5, §6

α4β2 nicotinic receptor = biological target: T4, α4β2 nicotinic receptor (Rattus norvegicus, UniProt P09483+P12390); assay: biochemical; type: binding
T4 construct: expressed in transfected cells; host or cells: stably transfected cell lines (e.g., HEK293, COS, CHO, NIH3T3)
Procedure: as §1, §2, §3, §4, §5, §6

α4β4 nicotinic receptor = biological target: T5, α4β4 nicotinic receptor (Rattus norvegicus, UniProt P09483+P12392); assay: biochemical; type: binding
T5 construct: expressed in transfected cells; host or cells: stably transfected cell lines (e.g., HEK293, COS, CHO, NIH3T3)
Procedure: as §1, §2, §3, §4, §5, §6

[1] = biological target: T6, α4β2* (endogenous α4β2, rat forebrain) (Rattus norvegicus, UniProt P09483+P12390); assay: biochemical; type: binding
T6 construct: from tissue; host or cells: rat forebrain
Procedure: as §1, §2, §3, §4, §5, §6

α3β2 nicotinic receptor = biological target: T7, α3β2 nicotinic receptor (Rattus norvegicus, UniProt P04757+P12390); assay: biochemical; type: binding
T7 construct: expressed in transfected cells; host or cells: stably transfected cell lines (e.g., HEK293, COS, CHO, NIH3T3)
Procedure: as §1, §2, §3, §4, §5, §6

male Balb/cJ mice = assay: Forced swim test in mice; type: in vivo
Procedure: Subjects. The subjects were male Balb/cJ mice obtained from Jackson Laboratory, Bar Harbor, Me. Mice were housed 4 per cage under controlled conditions of temperature, relative humidity and light-dark cycle with free access to food and water.
Procedures. […] Mice were individually placed into clear glass cylinders (i.e., 15 cm tall×10 cm wide, 1 L beakers) containing 23±1° C. water 12 cm deep (approximately 800 mL). The time the animal spent immobile was recorded over a 6 min trial. Immobility was described as the postural position of floating in the water.
Drugs. […] The mice were injected intraperitoneally (i.p.) 30 minutes before the start of the test. In another set of experiments, the test compounds were administered orally (p.o.) 30 minutes before the start of the test.
Statistics. The length of time spent floating was analyzed by Analysis of Variance (ANOVA) with dose of drug as the between-subject factor and time spent immobile across the 6 min test as the dependent variable. Post-hoc comparisons between the treatment groups and control group were made using Fisher's PLSD test. A significance level of 5% was used throughout.

T2 sequence (P12392 21-495): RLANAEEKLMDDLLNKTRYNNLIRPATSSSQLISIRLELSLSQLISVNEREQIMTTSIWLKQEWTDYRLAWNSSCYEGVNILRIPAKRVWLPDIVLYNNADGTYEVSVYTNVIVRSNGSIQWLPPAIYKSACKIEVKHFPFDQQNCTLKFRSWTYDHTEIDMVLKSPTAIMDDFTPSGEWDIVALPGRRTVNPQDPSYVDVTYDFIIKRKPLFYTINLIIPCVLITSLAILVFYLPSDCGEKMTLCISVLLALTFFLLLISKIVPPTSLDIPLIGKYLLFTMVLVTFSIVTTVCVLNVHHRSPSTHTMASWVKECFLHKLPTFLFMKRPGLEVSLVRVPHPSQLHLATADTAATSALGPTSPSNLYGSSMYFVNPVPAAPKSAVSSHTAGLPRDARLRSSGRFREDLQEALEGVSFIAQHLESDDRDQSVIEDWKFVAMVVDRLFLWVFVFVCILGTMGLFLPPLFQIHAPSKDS
T2 sequence (P12389 28-511): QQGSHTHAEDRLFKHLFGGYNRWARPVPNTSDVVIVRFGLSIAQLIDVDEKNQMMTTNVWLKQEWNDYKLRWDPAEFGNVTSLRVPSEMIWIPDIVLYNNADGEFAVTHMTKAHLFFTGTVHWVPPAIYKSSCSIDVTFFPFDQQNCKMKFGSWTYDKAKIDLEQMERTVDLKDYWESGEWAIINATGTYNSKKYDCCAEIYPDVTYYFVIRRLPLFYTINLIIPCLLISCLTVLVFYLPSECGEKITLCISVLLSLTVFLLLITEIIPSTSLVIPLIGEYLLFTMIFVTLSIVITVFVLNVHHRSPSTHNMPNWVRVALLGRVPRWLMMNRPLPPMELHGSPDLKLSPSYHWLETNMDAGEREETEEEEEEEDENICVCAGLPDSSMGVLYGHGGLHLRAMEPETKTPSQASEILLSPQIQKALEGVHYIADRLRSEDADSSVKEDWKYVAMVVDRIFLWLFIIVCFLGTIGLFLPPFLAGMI
T7 sequence (P12390 25-500): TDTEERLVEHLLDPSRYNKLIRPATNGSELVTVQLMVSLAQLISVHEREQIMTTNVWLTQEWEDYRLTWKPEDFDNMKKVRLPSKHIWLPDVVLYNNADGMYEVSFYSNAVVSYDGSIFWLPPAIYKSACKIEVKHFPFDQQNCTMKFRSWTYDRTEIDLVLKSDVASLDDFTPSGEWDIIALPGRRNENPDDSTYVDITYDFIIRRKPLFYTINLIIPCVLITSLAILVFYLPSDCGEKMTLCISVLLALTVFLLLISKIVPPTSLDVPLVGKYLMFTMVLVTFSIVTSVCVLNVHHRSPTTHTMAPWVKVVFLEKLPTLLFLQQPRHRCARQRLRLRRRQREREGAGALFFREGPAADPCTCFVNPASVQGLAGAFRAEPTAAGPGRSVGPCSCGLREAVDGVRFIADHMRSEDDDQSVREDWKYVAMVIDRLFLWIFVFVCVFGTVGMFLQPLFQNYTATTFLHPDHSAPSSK
T7 sequence (P04757 26-499): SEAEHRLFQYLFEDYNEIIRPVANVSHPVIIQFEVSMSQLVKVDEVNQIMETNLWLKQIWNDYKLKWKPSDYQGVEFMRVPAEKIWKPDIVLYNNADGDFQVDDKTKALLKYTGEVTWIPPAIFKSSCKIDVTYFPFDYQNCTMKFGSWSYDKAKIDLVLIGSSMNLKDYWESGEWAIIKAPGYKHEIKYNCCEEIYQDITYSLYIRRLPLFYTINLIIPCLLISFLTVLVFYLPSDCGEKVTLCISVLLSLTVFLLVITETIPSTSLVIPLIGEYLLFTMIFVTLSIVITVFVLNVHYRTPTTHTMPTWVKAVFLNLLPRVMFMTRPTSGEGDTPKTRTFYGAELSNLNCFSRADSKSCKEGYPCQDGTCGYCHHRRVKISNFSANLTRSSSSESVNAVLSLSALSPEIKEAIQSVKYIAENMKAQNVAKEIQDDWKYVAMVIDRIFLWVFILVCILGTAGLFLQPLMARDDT
T1 sequence (P12390 25-500): as the sequence (P12390 25-500) above
T1 sequence (P12389 28-511): as the sequence (P12389 28-511) above
T4 sequence (P09483 31-630): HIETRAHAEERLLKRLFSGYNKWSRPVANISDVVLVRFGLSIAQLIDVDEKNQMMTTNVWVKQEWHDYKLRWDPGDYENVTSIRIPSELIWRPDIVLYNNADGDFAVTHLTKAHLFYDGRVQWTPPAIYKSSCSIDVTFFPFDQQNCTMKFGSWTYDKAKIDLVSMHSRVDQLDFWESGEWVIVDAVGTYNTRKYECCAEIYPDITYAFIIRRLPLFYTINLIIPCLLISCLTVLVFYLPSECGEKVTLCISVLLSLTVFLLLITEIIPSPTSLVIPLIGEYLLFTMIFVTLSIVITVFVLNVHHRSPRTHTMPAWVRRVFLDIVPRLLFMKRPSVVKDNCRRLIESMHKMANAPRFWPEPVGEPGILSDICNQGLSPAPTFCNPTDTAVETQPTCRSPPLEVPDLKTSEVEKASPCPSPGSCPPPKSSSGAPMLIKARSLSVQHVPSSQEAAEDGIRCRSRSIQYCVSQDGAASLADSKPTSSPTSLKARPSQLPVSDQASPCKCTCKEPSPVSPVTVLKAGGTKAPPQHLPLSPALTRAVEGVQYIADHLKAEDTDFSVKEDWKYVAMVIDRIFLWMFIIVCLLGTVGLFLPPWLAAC
T4 sequence (P12390 25-500): as the sequence (P12390 25-500) above
T6 sequence (P09483 31-630): as the sequence (P09483 31-630) above
T6 sequence (P12390 25-500): as the sequence (P12390 25-500) above
T3 sequence (P04757 26-499): as the sequence (P04757 26-499) above
T3 sequence (P12392 21-495): as the sequence (P12392 21-495) above
T5 sequence (P09483 31-630): as the sequence (P09483 31-630) above
T5 sequence (P12392 21-495): as the sequence (P12392 21-495) above

Compound	Ki (α2β2 nicotinic receptor) [nM]	Ki (α2β4 nicotinic receptor) [nM]	Ki (α4β2 nicotinic receptor) [nM]	Ki [1] [nM]	Ki (α3β2 nicotinic receptor) [nM]	effect in the forced swim test as indicated by a reduction in immobility time (male Balb/cJ mice; mouse, in vivo, ip)	other results
FCC[C@H]1C[C@@H]1c1cncc(OC[C@@H]2CCN2)c1	6.4	660	1	11	34		Ki (α3β4 nicotinic receptor): > 10000 nM; Ki (α4β4 nicotinic receptor): 1300 nM
OCCCC[C@H]1C[C@@H]1c1cncc(OC[C@@H]2CCN2)c1	0.6	120	0.5	1.4	6.5		Ki (α4β4 nicotinic receptor): 240 nM
OCCCc1cccc(-c2cncc(OC[C@@H]3CCN3)c2)c1 [Example 15c, 3-[3-[5-[(2(S)-Azetidinyl)methoxy]-3-pyridyl]phenyl]-1-propanol]						positive effects	reduction in immobility time compared to vehicle (male Balb/cJ mice; mouse, in vivo): 24.5 s; Average Immobility Time (male Balb/cJ mice; mouse, in vivo, ip, 5 mg/kg): 110.6 s; Average Immobility Time (male Balb/cJ mice; mouse, in vivo, ip, 10 mg/kg): 105.1** seconds and 85.3** seconds; Average Immobility Time (male Balb/cJ mice; mouse, in vivo, ip, 20 mg/kg): 49.7** seconds
OCC[C@H]1C[C@@H]1c1cncc(OC[C@@H]2CCN2)c1 [drawing 715]	0.9	62	0.3	1.2	5.1		Ki (α3β4 nicotinic receptor): 640 nM
OCC[C@H]1C[C@@H]1c1cncc(OC[C@@H]2CCN2)c1 [Example 2, 2-[(1R,2S)-2-[5-[(2(S)-Azetidinyl)methoxy]-3-pyridyl]cyclopropyl]ethanol]						positive effects	
CN[C@H]1CC[C@@H](c2ccc(Cl)c(Cl)c2)c2ccccc21 [Sertraline, sertraline, reference compound]							Average Immobility Time (male Balb/cJ mice; Table 2, 20 mg/kg i.p., 30 min before test, 6 min trial, vehicle 126.3, ** = significantly different from vehicle): 11.9** seconds
OCCCCC#Cc1cncc(OC[C@@H]2CCN2)c1 [AMOP-H-OH, reference compound]						positive effects	
